In this test the target is T1, sGC α1/β1 heterodimer (Homo sapiens, UniProt Q02108+Q02153).
T1 construct: expressed in transfected cells; host or cells: CHO-K1 (clone #7, CHO-K1/sGC)
T1 sequence (Q02108 1-690): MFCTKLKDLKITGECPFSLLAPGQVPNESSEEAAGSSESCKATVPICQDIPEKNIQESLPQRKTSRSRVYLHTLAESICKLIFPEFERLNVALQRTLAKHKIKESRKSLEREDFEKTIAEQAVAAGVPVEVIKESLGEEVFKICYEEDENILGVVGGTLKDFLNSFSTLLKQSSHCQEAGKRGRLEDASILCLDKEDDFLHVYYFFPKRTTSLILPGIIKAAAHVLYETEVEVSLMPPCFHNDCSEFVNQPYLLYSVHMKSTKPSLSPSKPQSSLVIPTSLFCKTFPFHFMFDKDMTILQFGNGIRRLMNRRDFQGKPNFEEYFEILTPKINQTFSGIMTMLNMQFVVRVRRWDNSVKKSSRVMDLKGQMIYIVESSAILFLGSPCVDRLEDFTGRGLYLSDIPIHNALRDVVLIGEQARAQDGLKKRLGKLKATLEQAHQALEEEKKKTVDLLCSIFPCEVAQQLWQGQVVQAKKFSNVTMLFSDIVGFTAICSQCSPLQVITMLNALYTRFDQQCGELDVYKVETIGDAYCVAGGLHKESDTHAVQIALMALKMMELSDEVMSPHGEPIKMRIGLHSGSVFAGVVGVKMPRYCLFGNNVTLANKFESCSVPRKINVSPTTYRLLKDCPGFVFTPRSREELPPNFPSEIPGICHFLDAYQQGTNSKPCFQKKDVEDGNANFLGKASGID
T1 sequence (Q02153 1-619): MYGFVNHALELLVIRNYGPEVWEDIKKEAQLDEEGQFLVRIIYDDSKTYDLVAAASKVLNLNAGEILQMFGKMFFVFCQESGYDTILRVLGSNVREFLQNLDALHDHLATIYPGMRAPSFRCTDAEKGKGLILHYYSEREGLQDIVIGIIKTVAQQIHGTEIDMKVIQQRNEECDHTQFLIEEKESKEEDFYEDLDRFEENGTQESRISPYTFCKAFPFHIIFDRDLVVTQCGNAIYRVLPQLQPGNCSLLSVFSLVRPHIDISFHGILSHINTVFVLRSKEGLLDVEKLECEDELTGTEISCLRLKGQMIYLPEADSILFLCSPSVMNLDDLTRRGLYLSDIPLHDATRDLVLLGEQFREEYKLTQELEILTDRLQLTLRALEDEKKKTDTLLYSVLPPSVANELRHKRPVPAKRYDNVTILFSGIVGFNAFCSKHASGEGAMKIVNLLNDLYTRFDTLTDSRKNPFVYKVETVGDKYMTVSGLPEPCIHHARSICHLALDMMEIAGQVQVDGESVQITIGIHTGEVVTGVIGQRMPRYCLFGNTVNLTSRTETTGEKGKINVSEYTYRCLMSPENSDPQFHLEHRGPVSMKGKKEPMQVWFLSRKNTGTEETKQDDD
The test is described as follows: Cell-based sGC functional assay (CASA assay): cGMP generation in CHO-K1/sGC cells, HTRF detection. The conditions noted are these: for Emax: CHO-K1, percent activation relative to standard Compound A in CHO-K1/sGC cells, read-out: % Act.; for EC50: inflection point (IP) of cGMP generation in CHO-K1/sGC cells, 4P fit, activity expressed as percentage of Compound A. The gist of the method: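 Stable CHO-K1/sGC cells in EBSS buffer with 5 mM MgCl2, 0.05% BSA and 0.5 mM IBMX were incubated with compound (2.5% DMSO final) ±1 μM DETA-NO for 1 hr at 37° C. cGMP was measured by HTRF. Activation is expressed as % of reference HDA Compound A maximum, with IP and max fold induction from a 4P fit.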

As a reminder, the EC50 is the concentration needed to bring the measured effect to its halfway point. Low values mean a more potent agent, high ones a less potent agent. With `CC1(c2ccc(F)cn2)C(=O)Nc2nc(-c3cn4c(Br)cnc4c(CCC(F)(F)C(F)(F)F)n3)nc(N)c21` (stereo not drawn) [Example 262B, 4-Amino-2-(3-bromo-8-(3,3,4,4,4-pentafluorobutyl)imidazo[1,2-a]pyrazin-6-yl)-5-(5-fluoropyridin-2-yl)-5-methyl-5H-pyrrolo[2,3-d]pyrimidin-6(7H)-one], the Emax came to 105% and the half-maximal effective concentration (EC50) was determined as 236 nM.

As for `CC1(C)C(=O)Nc2nc(-c3cn4c(Br)cnc4c(CCC(F)(F)C(F)(F)F)n3)nc(N)c21` [Example 263, 4-amino-2-(3-bromo-8-(3,3,4,4,4-pentafluorobutyl)imidazo[1,2-a]pyrazin-6-yl)-5,5-dimethyl-5H-pyrrolo[2,3-d]pyrimidin-6(7H)-one], the Emax was determined as 20% and the 50% effective concentration (EC50) was 314 nM.

For the molecule `CC1(c2ccccc2)C(=O)Nc2nc(-c3cn4c(Br)cnc4c(CCC(F)(F)F)n3)nc(N)c21` (stereo not drawn) [Example 265B, 4-amino-2-(3-bromo-8-(3,3,3-trifluoropropyl)imidazo[1,2-a]pyrazin-6-yl)-5-methyl-5-phenyl-5H-pyrrolo[2,3-d]pyrimidin-6(7H)-one], the Emax was found to be 121% and a half-maximal effect (EC50) was put at 648 nM.

For the molecule `Cc1nc2c(CCC(F)(F)C(F)(F)F)nc(-c3nc(N)c4c(n3)NC(=O)C4(C)c3ccc(F)cc3)cn2c1Br` (stereo not drawn) [Example 266A, 4-amino-2-(3-bromo-2-methyl-8-(3,3,4,4,4-pentafluorobutyl)imidazo[1,2-a]pyrazin-6-yl)-5-(4-fluorophenyl)-5-methyl-5H-pyrrolo[2,3-d]pyrimidin-6(7H)-one], the Emax is 101% and the concentration giving a half-maximal response (EC50) came out at 141 nM.

Regarding `CC1(c2ccc(F)cc2)C(=O)Nc2nc(-c3cn4c(N)cnc4c(CCC(F)(F)C(F)(F)F)n3)nc(N)c21` (stereo not drawn) [Example 267A, 4-Amino-2-(3-amino-8-(3,3,4,4,4-pentafluorobutyl)imidazo[1,2-a]pyrazin-6-yl)-5-(4-fluorophenyl)-5-methyl-5H-pyrrolo[2,3-d]pyrimidin-6(7H)-one], the Emax stood at 91% and the EC50 came out at 212 nM.

For the molecule `CC1(c2ccc(F)cn2)C(=O)Nc2nc(-c3cn4c(N)cnc4c(CCC(F)(F)C(F)(F)F)n3)nc(N)c21` (stereo not drawn) [Example 268B, 4-Amino-2-(3-amino-8-(3,3,4,4,4-pentafluorobutyl)imidazo[1,2-a]pyrazin-6-yl)-5-(5-fluoropyridin-2-yl)-5-methyl-5H-pyrrolo[2,3-d]pyrimidin-6(7H)-one], the Emax stood at 79% and a half-maximal response (EC50) required 338 nM.

In the case of `CC1(c2ccc(Cl)cn2)C(=O)Nc2nc(-c3cn4c(N)cnc4c(CCC(F)(F)C(F)(F)F)n3)nc(N)c21` (stereo not drawn) [Example 269A, 4-amino-2-(3-amino-8-(3,3,4,4,4-pentafluorobutyl)imidazo[1,2-a]pyrazin-6-yl)-5-(5-chloropyridin-2-yl)-5-methyl-5H-pyrrolo[2,3-d]pyrimidin-6(7H)-one], the Emax turned out to be 198% and the half-maximal effective concentration (EC50) was 5090 nM.

As to `CN(C)C(=O)c1cccc(C2(C)C(=O)Nc3nc(-c4cn5ccnc5c(CCC(F)(F)C(F)(F)F)n4)nc(N)c32)c1` (stereo not drawn) [Example 271B, 3-(4-Amino-5-methyl-6-oxo-2-(8-(3,3,4,4,4-pentafluorobutyl)imidazo[1,2-a]pyrazin-6-yl)-6,7-dihydro-5H-pyrrolo[2,3-d]pyrimidin-5-yl)-N,N-dimethylbenzamide], the Emax amounted to 95% and the response was half-maximal at 622 nM (EC50).

With `CC1(C)C(=O)Nc2nc(-c3cn4ccnc4c(Cc4cccc(C#N)c4)n3)nc(N)c21` [Example 272, 3-((6-(4-Amino-5,5-dimethyl-6-oxo-6,7-dihydro-5H-pyrrolo[2,3-d]pyrimidin-2-yl)imidazo[1,2-a]pyrazin-8-yl)methyl)benzonitrile], the Emax was 114% and the midpoint of the response, the EC50, lay at 367 nM.

The values above are taken from patent US9796733B2, “Imidazo-pyrazine derivatives useful as soluble guanylate cyclase activators” (Merck Sharp & Dohme Corp., priority 2014, dated 2017).
